Results: US20230123334A1, “AMINO LIPID COMPOUND, PREPARATION METHOD THEREFOR, AND APPLICATION THEREOF” (SHENZHEN SHENXIN BIOTECHNOLOGY CO., LTD., priority 2020, published 2023)

System: HEK293 cells
Assay: Preliminary screening as mRNA vectors, EGFP mRNA transfection of HEK293 cells
Assay type: cell-based
Details: EGFP mRNA 50 ng per well, 96-well plates; percentage of GFP fluorescent cells relative to total number of cells (Hoechst)
How it was run: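 HEK293 cells in DMEM plus 10% FBS transfected in 96-well format with 50 ng EGFP mRNA per well; Lipofectamine2000 served as positive control. Read-out is the percentage of GFP-fluorescent cells among total cells, counted by Hoechst nuclear stain.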

In order of rising “Absolute mRNA transfection efficiency in HEK293 cells” value:
1. CCCCCCCCCCCCCCCCCCNc1nc(NCCCN2CCOCC2)nc(SCCCCCCCCCCCCCCCCCC)n1 [Compound D8S18N18]  0.0%
2. CCCCCCCCCCCCCCCCCCSc1nc(NCCCCCCCCCCCCCCCC)nc(NCCN2CCOCC2)n1 [Compound D2S18N16]  0.0%
3. CCCCCCCCCCCCN(CCCCCCCCCCCC)c1nc(NCCCN2CCN(C)CC2)nc(SCCCCCCCCCCC)n1 [D9S11^2N12]  0.0%
4. CCCCCCCCCCCCCCCCNc1nc(NCCN2CCN(C)CC2)nc(SCCCCCCCCCCCCCCCC)n1 [Compound D5S16N16]  0.1%
5. CCCCCCCCCCCCCCSc1nc(NCCN(C)C)nc(N(CCCCCCCCCCCC)CCCCCCCCCCCC)n1 [D1S14^2N12]  0.1%
6. CCCCCCCCCCSc1nc(NCCCCCC)nc(NCCN2CCCCC2)n1 [Compound D4S10N6]  0.1%
7. CCCCCCCCCCCCCCCCCCNc1nc(NCCCN2CCN(C)CC2)nc(SCCCCCCCCCCCCCCCCCC)n1 [Compound D9S18N18]  0.1%
8. CCCCCCCCCCCCCCCCCCNc1nc(NCCN2CCN(C)CC2)nc(SCCCCCCCCCCCCCCCC)n1 [Compound D5S16N18]  0.2%
9. CCCCCCCCCCCCCCCNc1nc(NCCN2CCOCC2)nc(SCCCCCCCCCCCCCCC)n1 [Compound D2S15N15]  0.2%
10. CCCCCCCCCNc1nc(NCCCN(C)C)nc(SCCCCCC)n1 [Compound D6S6N9]  0.3%
11. CCCCCCCCCCCCCCCNc1nc(NCCN2CCN(C)CC2)nc(SCCCCCCCCCCCCCC)n1 [Compound D5S14N15]  0.3%
12. CCCCCCCCCCCCN(CCCCCCCCCCCC)c1nc(NCCN2CCCC2)nc(SCCCCCCC)n1 [D3S7^2N12]  0.4%
13. CCCCCCCCCCCCCCCCCCSc1nc(NCCCCCCCCC)nc(NCCN2CCOCC2)n1 [Compound D2S18N9]  0.4%
14. CCCCCCCCSc1nc(NCCCCCC)nc(NCC2CCN(C)CC2)n1 [Compound D10S8N6]  0.4%
15. CCCCCCCCCCCCN(CCCCCCCCCCCC)c1nc(NCCCN2CCOCC2)nc(SCCCCCCC)n1 [D8S7^2N12]  0.6%
16. CCCCCCCSc1nc(NCCN(C)C)nc(SCCCCCC)n1 [Compound D1S6S7]  1.0%
17. CCCCCCCCCCCCCCCCCCSc1nc(NCCCCCCC)nc(NCCN2CCOCC2)n1 [Compound D2S18N7]  1.0%
18. CCCCCCCCCCCCSc1nc(NCCCN2CCN(C)CC2)nc(SCCCCCC)n1 [Compound D9S6S12]  1.0%
19. CCCCCCCCCCCCCCCCCCNc1nc(NCCCN2CCOCC2)nc(SCCCCCCCCCCCC)n1 [Compound D8S12N18]  1.1%
20. CCCCCCCCCCCCCCSc1nc(NCCCCCCCCCCCCC)nc(NCCN2CCOCC2)n1 [Compound D2S14N13]  1.1%
21. CCCCCCCCCCCCCCCCNc1nc(NCCN2CCCC2)nc(SCCCCCCCCCCCCCCCC)n1 [Compound D3S16N16]  1.1%
22. CCCCCCCCCCCCN(CCCCCCCCCCCC)c1nc(NCCN(CC)CC)nc(SCCCCCCCC)n1 [D7S8^2N12]  1.3%
23. CCCCCCCCCCCCCCCCNc1nc(NCCN2CCCCC2)nc(SCCCCCCCCCCCC)n1 [Compound D4S12N16]  1.3%
24. CCCCCCCCCCCCN(CCCCCCCCCCCC)c1nc(NCC2CCN(C)CC2)nc(SCCCCCCCC)n1 [D10S8^2N12]  1.5%
25. CCCCCCCCCCCCSc1nc(NCCCCCCCC)nc(NCCN2CCOCC2)n1 [Compound D2S12N8]  1.6%
26. CCCCCCCCCCCCCCCCCCSc1nc(NCCCCCCCCCCCC)nc(NCCCN2CCN(C)CC2)n1 [Compound D9S18N12]  1.7%
27. CCCCCCCCCCCCCCCCCCNc1nc(NCCN2CCCCC2)nc(SCCCCCC)n1 [Compound D4S6N18]  1.8%
28. CCCCCCCCCCCCSc1nc(NCCN(CC)CC)nc(N(CCCCCCCCCCCC)CCCCCCCCCCCC)n1 [D7S12^2N12]  1.9%
29. CCCCCCCCCCCCN(CCCCCCCCCCCC)c1nc(NCCN2CCCCC2)nc(SCCCCCC)n1 [D4S6^2N12]  2.2%
30. CCCCCCCCCCCCCCCSc1nc(NCCCCCCCC)nc(NCCN2CCOCC2)n1 [Compound D2S15N8]  2.2%
31. CCCCCCCCCCCCCCSc1nc(NCCCCCCCCC)nc(NCCCN2CCOCC2)n1 [Compound D8S14N9]  2.3%
32. CCCCCCCCCCCNc1nc(NCCCN(C)C)nc(SCCCCCC)n1 [Compound D6S6N11]  2.5%
33. CCCCCCCNc1nc(NCCCN2CCN(C)CC2)nc(SCCCCCCC)n1 [Compound D9S7N7]  2.5%
34. CCCCCCCCCCSc1nc(NCCCCCCCCC)nc(NCCN2CCCC2)n1 [Compound D3S10N9]  2.7%
35. CCCCCCCCCCCCCCCCCCSc1nc(NCCCCCCCCCCCCC)nc(NCC2CCN(C)CC2)n1 [Compound D10S18N13]  2.9%
36. CCCCCCCCCCCCNc1nc(NCCN2CCCCC2)nc(SCCCCCCCC)n1 [Compound D4S8N12]  3.5%
37. CCCCCCCCCCCCNc1nc(NCCN(CC)CC)nc(SCCCCCCC)n1 [Compound D7S7N12]  3.6%
38. CCCCCCCCCCCCCCSc1nc(NCCCCCCCC)nc(NCCN2CCOCC2)n1 [Compound D2S14N8]  3.7%
39. CCCCCCCCCCCCSc1nc(NCCCCCCCCCCC)nc(NCCN2CCCCC2)n1 [Compound D4S12N11]  3.7%
40. CCCCCCCCCCCCCCCCNc1nc(NCCCN2CCN(C)CC2)nc(SCCCCCCCCCCC)n1 [Compound D9S11N16]  3.9%
41. CCCCCCCCCCCCCCSc1nc(NCCCCCCCCC)nc(NCCN2CCCCC2)n1 [Compound D4S14N9]  4.0%
42. CCCCCCCCCSc1nc(NCCN(CC)CC)nc(SCCCCCC)n1 [Compound D7S6S9]  4.2%
43. CCCCCCCCCCCCCCCSc1nc(NCCCCCCCCCCCC)nc(NCCN2CCN(C)CC2)n1 [Compound D5S15N12]  4.3%
44. CCCCCCCCCCCCCCCCCCSc1nc(NCCCCCCCCCCCC)nc(NCCN2CCCC2)n1 [Compound D3S18N12]  5.2%
45. CCCCCCCCCCCCCNc1nc(NCCN2CCN(C)CC2)nc(SCCCCCC)n1 [Compound D5S6N13]  7.2%
46. CCCCCCCCCCCCCCCCSc1nc(NCCCCCCCCC)nc(NCCN2CCOCC2)n1 [Compound D2S16N9]  7.2%
47. CCCCCCCCCCCCCCSc1nc(NCCCCCC)nc(NCCN2CCOCC2)n1 [Compound D2S14N6]  8.8%
48. CCCCCCCSc1nc(NCCN2CCN(C)CC2)nc(SCCCCCC)n1 [Compound D5S6S7]  10.0%
49. CCCCCCCCCCCCCNc1nc(NCCN2CCN(C)CC2)nc(SCCCCCCCCCCC)n1 [Compound D5S11N13]  11.2%
50. CCCCCCCCCCCCCCCSc1nc(NCCCCCCCCCCC)nc(NCCN(C)C)n1 [Compound D1S15N11]  11.9%
51. CCCCCCCCCCCCCCCCNc1nc(NCCN2CCCCC2)nc(SCCCCCCCCCC)n1 [Compound D4S10N16]  14.7%
52. CCCCCCCCCCCCCCSc1nc(NCCCCCCCCCCC)nc(NCCCN2CCN(C)CC2)n1 [Compound D9S14N11]  15.6%
53. CCCCCCCCSc1nc(NCCN(C)C)nc(SCCCCCCC)n1 [Compound D1S7S8]  16.7%
54. CCCCCCCCCCCCCCCCCCNc1nc(NCCN(CC)CC)nc(SCCCCCCCCC)n1 [Compound D7S9N18]  21.1%
55. CCCCCCCCCCCSc1nc(NCCN2CCN(C)CC2)nc(SCCCCCC)n1 [Compound D5S6S11]  21.1%
56. CCCCCCCCCCCCCCCCNc1nc(NCCCN2CCN(C)CC2)nc(SCCCCCCCC)n1 [Compound D9S8N16]  21.2%
57. CCCCCCCCCCCSc1nc(NCCN2CCOCC2)nc(SCCCCCCC)n1 [Compound D2S7S11]  24.2%
58. CCCCCCCCCCCNc1nc(NCCN(C)C)nc(SCCCCCCCCCCC)n1 [Compound D1S11N11]  24.7%
59. CCCCCCCCCCCCCCCCSc1nc(NCCCCCCCCC)nc(NCCN(C)C)n1 [Compound D1S16N9]  26.4%
60. CCCCCCCCCCCCSc1nc(NCCCCCCCCCCC)nc(NCC2CCN(C)CC2)n1 [Compound D10S12N11]  26.6%
61. CCCCCCCCCCCCCCCCCCNc1nc(NCCCN(C)C)nc(SCCCCCCCCCC)n1 [Compound D6S10N18]  31.8%
62. CCCCCCCCCCCCCCCCCCNc1nc(NCCN(C)C)nc(SCCCCCC)n1 [Compound D1S6N18]  32.7%
63. CCCCCCCCCCCCSc1nc(NCCCCCCCCC)nc(NCCN(C)C)n1 [Compound D1S12N9]  34.2%
64. CCCCCCCCCSc1nc(NCCN2CCOCC2)nc(SCCCCCCC)n1 [Compound D2S7S9]  37.7%
65. CCCCCCCCSc1nc(NCC2CCN(C)CC2)nc(SCCCCCCCC)n1 [Compound D10S8S8]  50.8%
66. CCCCCCCCCCCCSc1nc(NCCCN(C)C)nc(SCCCCCCCC)n1 [Compound D6S8S12]  61.9%
